These results are taken from patent publication US9808434B2, “Compound for treating cancer and diabetes” (CITY OF HOPE, priority 2011, dated 2017).

One assay deals with U251 glioma cells. Put plainly: Intracellular ROS (H2DCFDA+ cells), flow cytometry. Type of assay: cell-based. The settings on record: 2 or 10 μM, 24 hours. As to the method:
Cells of U251 glioma cells or pNHA cell lines were treated with COH-SR4 at a concentration of 0 μM, 2 μM or 10 μM for 24 hours before intracellular ROS was assessed by flow cytometry (representative of 3 runs and samples in triplicate). ROS increased in the glioma cells treated with COH-SR4 as indicated by the increased amounts of H2DCFDA+ cells (FIG. 38).
Background: Flow cytometry measures light scatter and fluorescence of single cells or particles in a stream.

The next assay concerns HRE promoter. Put plainly: HRE promoter luciferase reporter in U251. Format: cell-based. The settings on record: U251, 1 or 3 μM, 24 hours, normoxic and hypoxic. As for the experimental part:
U251 cells were transfected with plasmids expressing luciferase reporter genes driven by a HRE reporter plasmid containing five copies of the HRE site (5×HRE). Transfected cells were then incubated with COH-SR4 at various concentrations (0, 1, or 3 μM) for 24 hours and assayed for luciferase activities. Data were represented as a ratio to vehicle control that was treated by DMSO.

The subject of the next assay is A375. Kind of assay: Colony formation assay, A375. The settings on record: 5 μM. Type of assay: cell-based, human. As to the method:
(§1) Cell survival was evaluated using a standard colony-forming assay. In total, 1×10^5 cells/mL were incubated with COH-SR4 (1.5 μM or 5 μM) or elesclomol (5 μM) for 24 h, and aliquots of 50 or 100 μL were added to 60 mm size petri dishes, containing 4 mL culture medium. After 7 or 10 days, adherent colonies were fixed, stained with 0.5% methylene blue for 30 min and colonies were counted using the Innotech Alpha Imager HP (91).

The next assay relates to NHDF. Kind of assay: Colony formation assay, NHDF. Format: cell-based, human. The note with it: FIG. 67B, 5 μM, vs untreated control. As for the experimental part: as §1
A further assay has as its system GST. Kind of assay: GST activity towards CDNB in melanoma cell supernatants. The note with it: B16-F0, Hs600T, A2058 supernatants; 1 mM GSH and CDNB. Type of assay: biochemical. As for the experimental part: GST activity towards 1-chloro 2,4-dinitro benzene (CDNB) and its inhibition by COH-SR4 was performed in 28000×g crude supernatant prepared from B16-F0, Hs600T and A2058 cells. Human liver purified GST was used as a control (inset). The inhibitory effect of COH-SR4 on GST was studied at a fixed concentration of GSH and CDNB (1 mM each) and varying concentrations of inhibitor. The enzymes were pre-incubated with the inhibitor for 5 min at 37° C. prior to the addition of the substrates. […] The ability of COH-SR4 to inhibit GST activity in melanomas represents a potential mechanism that contributes to decreased survival of melanoma cells following COH-SR4 treatment (FIG. 68A).

The next assay relates to A2058 human melanoma. Format: in vivo. As for the experimental part: For melanoma studies, C57B mice (for syngeneic B16-F0 mouse melanoma model) and Hsd: Athymic nude nu/nu mice (for A2058 human melanoma mouse xenografts model), were obtained from Harlan, Indianapolis, Ind. All animal experiments were carried out in accordance with a protocol approved by the Institutional Animal Care and Use Committee (IACUC). […] All animals were injected with 2×10^6 melanoma cells suspensions in 100 μL of PBS, subcutaneously into one flank of each mouse. Treatment was started 10 days after the implantation to see palpable tumor growth. […] Control groups were treated with 200 μL corn oil by oral gavage alternate days. Animals were examined daily for signs of tumor growth. Tumors were measured in two dimensions using calipers. Photographs of animals were taken at day 1, day 10, day 14, day 18, day 20, day 30, and day 51 after subcutaneous injection, are shown for all groups. Photographs of tumors were also taken at day 20 (for syngeneic model), and at day 51 (for xenograft model).
C57B mice (for syngeneic B16-F0 mouse melanoma model) and Hsd: Athymic nude nu/nu mice (for A2058 human melanoma mouse xenografts model), were used for testing the impact of oral administration of COH-SR4 on melanoma progression in vivo models. […] All animals were injected with 2×10^6 melanoma cells suspensions in 100 μL of PBS, subcutaneously into one flank of each mouse. Treatment was started 10 days after the implantation of melanoma cells. […] Control groups were treated with 200 μL corn oil by oral gavage alternate day. Animals were examined daily for signs of tumor growth and body weights were recorded. […] Animals were examined daily for signs of tumor growth. Tumors were measured in two dimensions using calipers. […] Weights and photographs of tumors were also taken at day 20 (for syngeneic model), and at day 51 (for xenograft model) (FIG. 70B). […] Tumors were measured in two dimensions using calipers and time-course analysis of tumor regression was performed during the study. […]

A further assay has as its system SK-MEL2. Put plainly: Intracellular ATP production, luminescence kit. Type of assay: cell-based, human. The note with it: 5 μM, less than 1 h. As for the experimental part:
(§2) ATP production from cells treated with test compounds were measured using the Luminescent ATP Detection Assay Kit. AMP, ATP and ADP were measured by UV-HPLC.
One of the consequences of mitochondria uncoupling is decrease intracellular ATP production, leading to increased AMP:ATP ratio and triggering activation of the energy-sensitive enzyme AMPK. It has been previously shown that COH-SR4 indirectly activates AMPK in a time- and dose-dependent manner in both HepG2 cells and 3T3-adipocytes. […] In melanomas, mutation rates for BRAF NRAS and LKB1 are 50-70%, 5-30%, and 10%, respectively. […] AMPK activation may cause a cell cycle arrest associated with stabilization of p53 and the cyclin-dependent kinase inhibitors p21^WAF1 and p27^CIP1.

For assay [1], the system named is HepG2 liver carcinoma cells. Put plainly: Intracellular AMP:ATP ratio in HepG2. Format: cell-based, human. The note with it: 5 μM, 1 h. As to the method: as §2
Total intracellular ATP production in cells treated with either 5 μM COH-SR4 or 5 μM FCCP was measured by bioluminescence assay and expressed as percentage of time-matched vehicle (DMSO) control (FIG. 84A). Intracellular AMP: ATP ratios increased in HepG2 liver carcinoma cells following 1 h treatment with either 5 μM COH-SR4 or 5 μM FCCP (FIG. 84B) and in liver of db/db mice treated with COH-SR4 (5 mg/kg B.W.) for 5 weeks (FIG. 84C). All data represented are mean±SEM, *P<0.05.

As to `O=C(Nc1cc(Cl)cc(Cl)c1)Nc1cc(Cl)cc(Cl)c1` [COH-SR4, 1,3-bis(3,5-dichlorophenyl) urea], the “intracellular ROS (H2DCFDA+ cells)” value in the assay with U251 glioma cells is “ROS increased”. In the assay on HRE promoter, the “luciferase expression driven by HRE promoter” value is “inhibited luciferase expression driven by HRE promoter”. In the assay with A375, this compound displayed a colony formation of 42±6%. In the assay with NHDF, the colony forming potential worked out at 97±3%. Further, the “total GST activity towards CDNB” value with GST is reported as “inhibited the total GST activity to a significant extent”. Moreover, in the assay on A2058 human melanoma (20 mg/kg b.w.), the “tumor regression and toxicity at higher dosage” value is “no further improvement in tumor regression and no toxicity was observed”. In the assay on A2058 human melanoma (day 51, control 1.91±0.3 g), the tumor weight came out at 0.7 ± 0.1 g. The “survival (still alive)” value in the assay on A2058 human melanoma (vehicle censored by day 51±3) was ≥ 88 days. Moreover, the “intracellular ATP production” value in the assay on SK-MEL2 is “rapid decline”. Also, in assay [1], the “intracellular AMP:ATP ratios” value was “increased”.
